In US20240100065A1, “METHODS FOR TREATING RECEPTOR-INTERACTING PROTEIN KINASE 1-MEDIATED DISEASES” (Genzyme Corporation, priority 2022, published 2024):

Assay: Safety and tolerability (TEAEs, PCSAs, laboratory tests) in phase 1 study Parts 1a, 1b, 2
Assay type: in vivo, healthy adult participants (human)
Details: for ALT increase: Part 1b 10 mg
Protocol: This single ascending dose (SAD) study consisted of three parts: Part 1a, which is a phase 1, randomized, placebo-controlled, double-blind, sequential ascending single dose study; Part 1b, which is phase 1, open-label, sequential single dose study; and Part 2, which is an ascending 14-day repeated oral dose study.
Part 1a evaluated 4 sequential ascending dose levels of Compound 1 under fasted conditions: 10 mg, 20 mg, 30 mg, and 40 mg, each dose per cohort. Participants were fasted overnight for at least 8 hours before the morning dose and 2 hours after dosing.
Part 1b is an open-label study with two single dose levels of Compound 1, previously tested for safety/tolerability in SAD cohorts of Part 1a, were selected (10 mg and 40 mg) and sequentially administered under a fed condition, each dose per cohort. Participants were fasted overnight for at least 8 hours, and then fed with a light breakfast approximately 30 minutes before Compound 1 dosing. In both Part 1a and 1b, all participants received one single dose of treatment.
Part 2 was a randomized, double-blind, placebo-controlled study that evaluated 14-day multiple ascending oral doses of Compound 1 once daily (OD) or twice daily (BID) regimen under fasted conditions: 10 mg QD, 20 mg QD, 15 mg BID, and 20 mg BID. Participants fasted overnight for at least 8 hours before the morning dose and 2 hours after dosing on Day 1 and Day 14. All other morning doses were administered after an overnight fast and approximately 30 minutes before a breakfast snack. Sentinel dosing approach was followed where two of ten participants in each cohort were dosed the first day (n=1, Compound; n=1, placebo) in advance of the full cohort. The remaining 8 participants from each cohort were randomized to receive either Compound or placebo (randomized 7:1) on the following days with at least 48-hour interval from dosing of the sentinel participants, allowing a safety evaluation at the predicted steady state.
Safety and tolerability were assessed by physical examination, neurological examination, monitoring adverse events (AEs) and potentially clinically significant abnormalities (PCSAs) in clinical laboratory tests (hematology, clinical chemistry, and urinalysis), vital signs (body temperature, blood pressure and heart rate), and ECG parameters (heart rate, RR, PR, QRS, QT, QTcF, QTcB intervals) measured in the standard 12-lead ECG or ECGs extracted from 24-hour Holter ECG data.
Safety population included all participants who received at least one dose of study intervention (Compound 1 or placebo). All safety assessments (AEs, laboratory parameters, vital signs) were based on the review of individual values and were summarized using descriptive statistics. Safety analysis was focused on treatment-emergent period, defined as the time from the first investigational medicinal product (IMP) administration up to the end of study visit (included). AEs were coded according to the Medical Dictionary for Regulatory Activities (MedDRA, version 23.1 in Part 1a and Part 1b; version 24 in Part 2). Severity was graded from Grade 1 to 4 according to the Food and Drug Administration (FDA) Guidance for Industry. Number (%) of participants experiencing TEAEs and potentially clinically significant abnormality (PCSAs) in clinical chemistry, vital signs, and ECGs were summarized by dose level group.

## CC(C)(C(=O)N1CCOc2c(C#N)cncc2C1)C(F)F [Compound 1, 4-(3,3-difluoro-2,2-dimethyl-propanoyl)-3,5-dihydro-2H-pyrido[3,4-f] [1,4]oxazepine-9-carbonitrile]
Part 1a single 10 mg fasted
  Any Grade ≥3 TEAE, participants: 0 n
  Any TEAE, participants: 2 n
  Any treatment-emergent AESI, participants: 0 n
  Any treatment-emergent SAE, participants: 0 n
  TEAE Blood creatine phosphokinase increased, participants: 0 n
  TEAE Cardiac disorders, participants: 1 n
  TEAE Dermatitis contact, participants: 1 n
  TEAE Dizziness, participants: 0 n
  TEAE Eye disorders, participants: 0 n
  TEAE Fatigue, participants: 0 n
  TEAE General disorders and administration site conditions, participants: 0 n
  TEAE Headache, participants: 0 n
  TEAE Investigations, participants: 0 n
  TEAE Keratitis, participants: 0 n
  TEAE Medical device site dermatitis, participants: 0 n
  TEAE Musculoskeletal and connective tissue disorders, participants: 0 n
  TEAE Myalgia, participants: 0 n
  TEAE Nervous system disorders, participants: 0 n
  TEAE Presyncope, participants: 0 n
  TEAE Skin and subcutaneous tissue disorders, participants: 1 n
  TEAE Skin irritation, participants: 0 n
  TEAE Tachycardia, participants: 0 n
  TEAE Thrombophlebitis, participants: 0 n
  TEAE Vascular disorders, participants: 0 n
  TEAE Ventricular extrasystoles, participants: 1 n
  TEAE Vessel puncture site hypoaesthesia, participants: 0 n
  TEAE Vessel puncture site pain, participants: 0 n
Part 1a single 20 mg fasted
  Any Grade ≥3 TEAE, participants: 0 n
  Any TEAE, participants: 1 n
  Any treatment-emergent AESI, participants: 0 n
  Any treatment-emergent SAE, participants: 0 n
  TEAE Blood creatine phosphokinase increased, participants: 0 n
  TEAE Cardiac disorders, participants: 1 n
  TEAE Dermatitis contact, participants: 0 n
  TEAE Dizziness, participants: 0 n
  TEAE Eye disorders, participants: 0 n
  TEAE Fatigue, participants: 0 n
  TEAE General disorders and administration site conditions, participants: 0 n
  TEAE Headache, participants: 1 n
  TEAE Investigations, participants: 0 n
  TEAE Keratitis, participants: 0 n
  TEAE Medical device site dermatitis, participants: 0 n
  TEAE Musculoskeletal and connective tissue disorders, participants: 0 n
  TEAE Myalgia, participants: 0 n
  TEAE Nervous system disorders, participants: 1 n
  TEAE Presyncope, participants: 0 n
  TEAE Skin and subcutaneous tissue disorders, participants: 0 n
  TEAE Skin irritation, participants: 0 n
  TEAE Tachycardia, participants: 1 n
  TEAE Thrombophlebitis, participants: 0 n
  TEAE Vascular disorders, participants: 0 n
  TEAE Ventricular extrasystoles, participants: 0 n
  TEAE Vessel puncture site hypoaesthesia, participants: 0 n
  TEAE Vessel puncture site pain, participants: 0 n
Part 1a single 30 mg fasted
  Any Grade ≥3 TEAE, participants: 0 n
  Any TEAE, participants: 3 n
  Any treatment-emergent AESI, participants: 0 n
  Any treatment-emergent SAE, participants: 0 n
  Dizziness, events: 3 events
  TEAE Blood creatine phosphokinase increased, participants: 0 n
  TEAE Cardiac disorders, participants: 0 n
  TEAE Dermatitis contact, participants: 1 n
  TEAE Dizziness, participants: 2 n
  TEAE Eye disorders, participants: 1 n
  TEAE Fatigue, participants: 1 n
  TEAE General disorders and administration site conditions, participants: 1 n
  TEAE Headache, participants: 0 n
  TEAE Investigations, participants: 0 n
  TEAE Keratitis, participants: 1 n
  TEAE Medical device site dermatitis, participants: 0 n
  TEAE Musculoskeletal and connective tissue disorders, participants: 0 n
  TEAE Myalgia, participants: 0 n
  TEAE Nervous system disorders, participants: 2 n
  TEAE Presyncope, participants: 0 n
  TEAE Skin and subcutaneous tissue disorders, participants: 1 n
  TEAE Skin irritation, participants: 0 n
  TEAE Tachycardia, participants: 0 n
  TEAE Thrombophlebitis, participants: 1 n
  TEAE Vascular disorders, participants: 1 n
  TEAE Ventricular extrasystoles, participants: 0 n
  TEAE Vessel puncture site hypoaesthesia, participants: 0 n
  TEAE Vessel puncture site pain, participants: 0 n
Part 1a single 40 mg fasted
  Any Grade ≥3 TEAE, participants: 0 n
  Any TEAE, participants: 3 n
  Any treatment-emergent AESI, participants: 0 n
  Any treatment-emergent SAE, participants: 0 n
  Dizziness, events: 1 event
  TEAE Blood creatine phosphokinase increased, participants: 0 n
  TEAE Cardiac disorders, participants: 1 n
  TEAE Dermatitis contact, participants: 1 n
  TEAE Dizziness, participants: 1 n
  TEAE Eye disorders, participants: 0 n
  TEAE Fatigue, participants: 0 n
  TEAE General disorders and administration site conditions, participants: 1 n
  TEAE Headache, participants: 0 n
  TEAE Investigations, participants: 0 n
  TEAE Keratitis, participants: 0 n
  TEAE Medical device site dermatitis, participants: 0 n
  TEAE Musculoskeletal and connective tissue disorders, participants: 1 n
  TEAE Myalgia, participants: 1 (16.7) n
  TEAE Nervous system disorders, participants: 1 n
  TEAE Presyncope, participants: 0 n
  TEAE Skin and subcutaneous tissue disorders, participants: 1 n
  TEAE Skin irritation, participants: 0 n
  TEAE Tachycardia, participants: 0 n
  TEAE Thrombophlebitis, participants: 0 n
  TEAE Vascular disorders, participants: 0 n
  TEAE Ventricular extrasystoles, participants: 1 n
  TEAE Vessel puncture site hypoaesthesia, participants: 1 n
  TEAE Vessel puncture site pain, participants: 1 n
Part 1a, all Compound 1 groups
  PCSAs (hematology, clinical chemistry, vital signs, ECG), relevance: not clinically relevant
Part 1a, all Compound 1 groups, out of 24
  Participants with at least one TEAE: 9 participants
Part 1a, single 10-40 mg fasted
  SAEs or AESIs: no SAEs or AESIs
One participant, Day 2
  ALT increase: 1.5 fold ULN
One participant, Day 7 (end-of-study visit)
  ALT increase: 2.4 fold ULN
Part 1b overall, out of 12
  Participants with at least one TEAE: 10 participants
Part 1b single 10 mg fed
  Any Grade ≥3 TEAE, participants: 0 n
  Any TEAE, participants: 4 n
  Any treatment-emergent AESI, participants: 1 n
  Any treatment-emergent SAE, participants: 0 n
  TEAE Alanine aminotransferase increased, participants: 1 n
  TEAE Back pain, participants: 1 n
  TEAE Cerebrospinal fluid leakage, participants: 1 n
  TEAE Coccydynia, participants: 0 n
  TEAE Constipation, participants: 0 n
  TEAE Dizziness, participants: 0 n
  TEAE Gastrointestinal disorders, participants: 1 n
  TEAE Headache, participants: 3 n
  TEAE Investigations, participants: 1 n
  TEAE Musculoskeletal and connective tissue disorders, participants: 1 n
  TEAE Nausea, participants: 1 n
  TEAE Nervous system disorders, participants: 4 n
  TEAE Polyuria, participants: 0 n
  TEAE Radiculopathy, participants: 0 n
  TEAE Renal and urinary disorders, participants: 0 n
  TEAE Vomiting, participants: 1 n
Part 1b single 40 mg fed
  Any Grade ≥3 TEAE, participants: 1 n
  Any TEAE, participants: 6 n
  Any treatment-emergent AESI, participants: 0 n
  Any treatment-emergent SAE, participants: 1 n
  TEAE Alanine aminotransferase increased, participants: 0 n
  TEAE Back pain, participants: 2 n
  TEAE Cerebrospinal fluid leakage, participants: 3 (50.0) n
  TEAE Coccydynia, participants: 1 n
  TEAE Constipation, participants: 1 n
  TEAE Dizziness, participants: 1 n
  TEAE Gastrointestinal disorders, participants: 2 n
  TEAE Headache, participants: 4 n
  TEAE Investigations, participants: 0 n
  TEAE Musculoskeletal and connective tissue disorders, participants: 2 n
  TEAE Nausea, participants: 1 n
  TEAE Nervous system disorders, participants: 5 n
  TEAE Polyuria, participants: 1 n
  TEAE Radiculopathy, participants: 1 n
  TEAE Renal and urinary disorders, participants: 1 n
  TEAE Vomiting, participants: 1 n
Part 1b, all Compound 1 groups
  PCSAs (vital signs, ECG), relevance: not clinically relevant
Part 2 10 mg QD 14 days
  Any Grade ≥3 TEAE, participants: 0 n
  Any TEAE, participants: 4 n
  Any treatment-emergent AESI, participants: 0 n
  Any treatment-emergent SAE, participants: 0 n
Part 2 10 mg QD, out of 8
  TEAE Nervous system disorders, participants: 2 participants
Part 2 15 mg BID 14 days
  Any Grade ≥3 TEAE, participants: 0 n
  Any TEAE, participants: 6 n
  Any treatment-emergent AESI, participants: 1 n
  Any treatment-emergent SAE, participants: 0 n
Part 2 15 mg BID, one participant, Day 9
  ALT increase (AESI): 2.29 ULN
Part 2 15 mg BID, one participant, Day 15, 24 hours post last dosing
  ALT increase (AESI), highest: 2.71 ULN
Part 2 15 mg BID, out of 8
  TEAE Nervous system disorders, participants: 1 participants
Part 2 20 mg BID 14 days
  Any Grade ≥3 TEAE, participants: 0 n
  Any TEAE, participants: 4 n
  Any treatment-emergent AESI, participants: 0 n
  Any treatment-emergent SAE, participants: 0 n
Part 2 20 mg BID, out of 8
  TEAE Nervous system disorders, participants: 2 participants
Part 2 20 mg QD 14 days
  Any Grade ≥3 TEAE, participants: 0 n
  Any TEAE, participants: 3 n
  Any treatment-emergent AESI, participants: 0 n
  Any treatment-emergent SAE, participants: 0 n
Part 2 20 mg QD, out of 8
  TEAE Nervous system disorders, participants: 1 participants
Part 2, 14-day repeated doses
  SAE and severe TEAE (Grade ≥3): no serious adverse event (SAE) and no severe treatment-emergent adverse event
Part 2, all groups
  PCSAs for vital signs and ECG parameters, relevance: not clinically meaningful
Single dose up to 40 mg fasted and fed, up to 20 mg BID for 14 days
  Safety and tolerability, overall: safe and well tolerated
